Test results as given in ChEMBL document CHEMBL1201862, “PubChem BioAssay data set” (2004).
Activity calls are given as the source filed them.

Experiments:
Leucine aminopeptidase = biological target: T1, Leucine aminopeptidase (Plasmodium falciparum 3D7, UniProt Q8IL11); experiment: P. falciparum M17LAP inhibitors, primary screen, biochemical, fluorogenic H-Leu-NHMec substrate, 1536-well (AID 1619); format: functional
T1 sequence (Q8IL11 whole entry): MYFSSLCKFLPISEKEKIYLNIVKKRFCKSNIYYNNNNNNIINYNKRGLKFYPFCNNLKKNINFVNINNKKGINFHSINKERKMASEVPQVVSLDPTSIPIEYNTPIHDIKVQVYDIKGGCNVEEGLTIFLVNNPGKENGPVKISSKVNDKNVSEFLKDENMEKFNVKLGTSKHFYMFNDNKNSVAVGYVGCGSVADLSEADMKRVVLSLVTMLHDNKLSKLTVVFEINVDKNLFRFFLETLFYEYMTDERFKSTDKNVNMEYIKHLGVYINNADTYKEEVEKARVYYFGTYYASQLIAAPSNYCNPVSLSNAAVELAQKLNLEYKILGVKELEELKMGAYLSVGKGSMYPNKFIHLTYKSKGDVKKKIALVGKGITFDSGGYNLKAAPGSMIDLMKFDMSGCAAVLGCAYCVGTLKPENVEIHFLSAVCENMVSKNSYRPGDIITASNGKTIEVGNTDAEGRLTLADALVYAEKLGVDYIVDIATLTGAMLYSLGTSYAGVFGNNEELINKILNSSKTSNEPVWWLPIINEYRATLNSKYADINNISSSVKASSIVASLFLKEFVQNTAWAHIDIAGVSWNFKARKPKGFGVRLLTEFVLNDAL

[1] = biological target: Peroxisome proliferator-activated receptor gamma/Nuclear receptor coactivator 2 (Homo sapiens, UniProt P37231); format: functional;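 further: agonist potency for raising coactivator recruitment to the receptor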
[2] = biological target: Peroxisome proliferator-activated receptor gamma/Nuclear receptor coactivator 1 (Homo sapiens, UniProt P37231); format: functional;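 further: agonist potency as compounds enhance coactivator SRC-1 recruitment to PPARgamma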
[3] = biological target: Peroxisome proliferator-activated receptor gamma/Nuclear receptor coactivator 3 (Homo sapiens, UniProt P37231); format: functional;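 further: agonist potency for raising coactivator recruitment to the receptor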
Peroxisome proliferator-activated receptor gamma/Nuclear receptor coactivator 3, sequence (P37231 whole entry): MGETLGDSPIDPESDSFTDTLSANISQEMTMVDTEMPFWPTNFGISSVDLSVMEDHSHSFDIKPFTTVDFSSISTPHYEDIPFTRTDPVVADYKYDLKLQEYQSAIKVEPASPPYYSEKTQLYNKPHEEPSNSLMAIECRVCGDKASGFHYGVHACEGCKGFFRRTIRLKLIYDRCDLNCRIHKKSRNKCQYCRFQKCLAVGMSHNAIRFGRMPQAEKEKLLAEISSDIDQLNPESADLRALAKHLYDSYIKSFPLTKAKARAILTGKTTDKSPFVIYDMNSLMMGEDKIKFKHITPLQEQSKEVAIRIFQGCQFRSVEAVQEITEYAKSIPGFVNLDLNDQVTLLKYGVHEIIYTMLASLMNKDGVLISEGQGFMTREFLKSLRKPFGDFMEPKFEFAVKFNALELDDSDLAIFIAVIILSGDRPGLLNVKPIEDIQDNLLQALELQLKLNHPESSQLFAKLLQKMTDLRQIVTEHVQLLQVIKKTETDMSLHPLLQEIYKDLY
Peroxisome proliferator-activated receptor gamma/Nuclear receptor coactivator 3, sequence (Q9Y6Q9 whole entry, further chain): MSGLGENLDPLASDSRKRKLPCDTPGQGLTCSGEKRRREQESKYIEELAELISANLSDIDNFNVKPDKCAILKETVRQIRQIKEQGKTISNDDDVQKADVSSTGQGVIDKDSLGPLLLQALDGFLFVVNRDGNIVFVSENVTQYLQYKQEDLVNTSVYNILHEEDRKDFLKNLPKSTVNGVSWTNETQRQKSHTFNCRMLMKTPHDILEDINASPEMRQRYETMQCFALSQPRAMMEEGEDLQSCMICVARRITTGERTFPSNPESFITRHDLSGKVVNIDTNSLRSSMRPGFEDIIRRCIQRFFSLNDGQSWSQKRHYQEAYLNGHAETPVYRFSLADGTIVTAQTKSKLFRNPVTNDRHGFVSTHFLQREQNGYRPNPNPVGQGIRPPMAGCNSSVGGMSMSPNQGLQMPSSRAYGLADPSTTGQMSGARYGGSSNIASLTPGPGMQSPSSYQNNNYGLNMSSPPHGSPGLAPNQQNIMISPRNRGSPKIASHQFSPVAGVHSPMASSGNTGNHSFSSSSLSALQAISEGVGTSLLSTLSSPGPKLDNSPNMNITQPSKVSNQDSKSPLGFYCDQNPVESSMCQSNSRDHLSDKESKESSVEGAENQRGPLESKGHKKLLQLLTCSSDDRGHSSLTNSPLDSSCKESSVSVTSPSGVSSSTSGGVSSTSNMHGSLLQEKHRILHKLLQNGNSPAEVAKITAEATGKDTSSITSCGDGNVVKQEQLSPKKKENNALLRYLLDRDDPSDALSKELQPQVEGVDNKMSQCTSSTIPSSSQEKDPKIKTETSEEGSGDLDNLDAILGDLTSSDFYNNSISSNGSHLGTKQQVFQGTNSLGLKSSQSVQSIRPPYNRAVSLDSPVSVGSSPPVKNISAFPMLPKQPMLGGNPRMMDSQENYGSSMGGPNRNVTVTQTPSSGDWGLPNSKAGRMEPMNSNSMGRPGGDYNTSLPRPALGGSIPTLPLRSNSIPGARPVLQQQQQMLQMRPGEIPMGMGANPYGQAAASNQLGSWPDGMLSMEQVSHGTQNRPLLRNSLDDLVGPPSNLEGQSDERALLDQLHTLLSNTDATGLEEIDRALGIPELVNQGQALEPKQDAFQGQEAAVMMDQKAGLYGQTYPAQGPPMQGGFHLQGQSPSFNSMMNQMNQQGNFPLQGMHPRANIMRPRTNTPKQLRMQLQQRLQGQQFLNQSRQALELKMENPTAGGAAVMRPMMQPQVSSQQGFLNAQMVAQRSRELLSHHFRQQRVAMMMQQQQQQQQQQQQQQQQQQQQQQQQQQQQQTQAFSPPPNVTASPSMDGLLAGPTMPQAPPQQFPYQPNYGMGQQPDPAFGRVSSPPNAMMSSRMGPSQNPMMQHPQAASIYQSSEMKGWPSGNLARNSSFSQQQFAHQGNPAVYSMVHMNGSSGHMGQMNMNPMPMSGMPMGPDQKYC

Ion channel NompC = Ion channel NompC (Danio rerio, UniProt Q7T1G6); experiment: Dose response cell-based high-throughput screening assay for agonists of the transient receptor potential channel N1 (TRPN1). [Related pubchem assays (depositor defined):AID1424, AID1448]; format: functional
Mucolipin-3 = biological target: T2, Mucolipin-3 (Homo sapiens, UniProt Q8TDD5); experiment: Fluorescence counterscreen assay for […] agonists: dose response cell-based high-throughput screening assay to identify agonists of the transient receptor potential channel ML3 (TRPML3). [Related pubchem assays: 1424, 1448 ]; format: functional
T2 sequence (Q8TDD5 whole entry): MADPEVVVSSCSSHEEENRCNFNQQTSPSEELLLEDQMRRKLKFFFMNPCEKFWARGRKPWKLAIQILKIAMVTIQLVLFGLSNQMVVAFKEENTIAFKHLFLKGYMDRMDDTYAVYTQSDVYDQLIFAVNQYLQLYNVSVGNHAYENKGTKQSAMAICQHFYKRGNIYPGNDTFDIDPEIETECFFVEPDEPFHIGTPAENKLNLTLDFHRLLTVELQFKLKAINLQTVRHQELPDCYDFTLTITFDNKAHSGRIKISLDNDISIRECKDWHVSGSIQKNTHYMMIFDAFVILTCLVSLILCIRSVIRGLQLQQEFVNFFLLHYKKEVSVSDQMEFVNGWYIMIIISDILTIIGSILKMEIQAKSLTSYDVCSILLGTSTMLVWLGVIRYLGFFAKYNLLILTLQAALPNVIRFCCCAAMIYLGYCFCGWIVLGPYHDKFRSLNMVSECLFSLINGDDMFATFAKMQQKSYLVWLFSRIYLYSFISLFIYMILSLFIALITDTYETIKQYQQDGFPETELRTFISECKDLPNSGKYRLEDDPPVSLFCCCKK

[4] = biological target: T3, Calpain-2 catalytic subunit (Sus scrofa, UniProt P43367); experiment: pig calpain II inhibitor potency, dose response, biochemical, fluorogenic peptide substrate (AID 1420); format: functional
T3 sequence (P43367 whole entry): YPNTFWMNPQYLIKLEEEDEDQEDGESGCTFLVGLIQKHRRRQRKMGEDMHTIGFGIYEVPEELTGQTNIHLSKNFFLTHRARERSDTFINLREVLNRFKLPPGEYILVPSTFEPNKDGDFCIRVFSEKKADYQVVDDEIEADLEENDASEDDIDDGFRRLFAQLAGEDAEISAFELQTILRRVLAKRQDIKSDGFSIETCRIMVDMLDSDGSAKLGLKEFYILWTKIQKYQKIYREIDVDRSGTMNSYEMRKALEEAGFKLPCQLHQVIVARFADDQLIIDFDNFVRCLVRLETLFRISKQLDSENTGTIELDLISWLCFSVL

[5] = enhancers of respiration in Yfh1-depleted yeast, dose response, Friedreich's ataxia, plus single-dose screen (AID 1465); format: functional;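 further: yeast depleted of Yfh1p frataxin homolog grown on glycerol needing respiration; WST-1 tetrazolium dye reduction as measure of cellular dehydrogenase metabolic activity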
[6] = biological target: T4, Voltage-gated N-type calcium channel alpha-1B subunit/Amyloid beta A4 precursor protein-binding family A member 1 (Homo sapiens, UniProt Q00975+Q02410); format: protein assay
T4 sequence (Q00975 whole entry): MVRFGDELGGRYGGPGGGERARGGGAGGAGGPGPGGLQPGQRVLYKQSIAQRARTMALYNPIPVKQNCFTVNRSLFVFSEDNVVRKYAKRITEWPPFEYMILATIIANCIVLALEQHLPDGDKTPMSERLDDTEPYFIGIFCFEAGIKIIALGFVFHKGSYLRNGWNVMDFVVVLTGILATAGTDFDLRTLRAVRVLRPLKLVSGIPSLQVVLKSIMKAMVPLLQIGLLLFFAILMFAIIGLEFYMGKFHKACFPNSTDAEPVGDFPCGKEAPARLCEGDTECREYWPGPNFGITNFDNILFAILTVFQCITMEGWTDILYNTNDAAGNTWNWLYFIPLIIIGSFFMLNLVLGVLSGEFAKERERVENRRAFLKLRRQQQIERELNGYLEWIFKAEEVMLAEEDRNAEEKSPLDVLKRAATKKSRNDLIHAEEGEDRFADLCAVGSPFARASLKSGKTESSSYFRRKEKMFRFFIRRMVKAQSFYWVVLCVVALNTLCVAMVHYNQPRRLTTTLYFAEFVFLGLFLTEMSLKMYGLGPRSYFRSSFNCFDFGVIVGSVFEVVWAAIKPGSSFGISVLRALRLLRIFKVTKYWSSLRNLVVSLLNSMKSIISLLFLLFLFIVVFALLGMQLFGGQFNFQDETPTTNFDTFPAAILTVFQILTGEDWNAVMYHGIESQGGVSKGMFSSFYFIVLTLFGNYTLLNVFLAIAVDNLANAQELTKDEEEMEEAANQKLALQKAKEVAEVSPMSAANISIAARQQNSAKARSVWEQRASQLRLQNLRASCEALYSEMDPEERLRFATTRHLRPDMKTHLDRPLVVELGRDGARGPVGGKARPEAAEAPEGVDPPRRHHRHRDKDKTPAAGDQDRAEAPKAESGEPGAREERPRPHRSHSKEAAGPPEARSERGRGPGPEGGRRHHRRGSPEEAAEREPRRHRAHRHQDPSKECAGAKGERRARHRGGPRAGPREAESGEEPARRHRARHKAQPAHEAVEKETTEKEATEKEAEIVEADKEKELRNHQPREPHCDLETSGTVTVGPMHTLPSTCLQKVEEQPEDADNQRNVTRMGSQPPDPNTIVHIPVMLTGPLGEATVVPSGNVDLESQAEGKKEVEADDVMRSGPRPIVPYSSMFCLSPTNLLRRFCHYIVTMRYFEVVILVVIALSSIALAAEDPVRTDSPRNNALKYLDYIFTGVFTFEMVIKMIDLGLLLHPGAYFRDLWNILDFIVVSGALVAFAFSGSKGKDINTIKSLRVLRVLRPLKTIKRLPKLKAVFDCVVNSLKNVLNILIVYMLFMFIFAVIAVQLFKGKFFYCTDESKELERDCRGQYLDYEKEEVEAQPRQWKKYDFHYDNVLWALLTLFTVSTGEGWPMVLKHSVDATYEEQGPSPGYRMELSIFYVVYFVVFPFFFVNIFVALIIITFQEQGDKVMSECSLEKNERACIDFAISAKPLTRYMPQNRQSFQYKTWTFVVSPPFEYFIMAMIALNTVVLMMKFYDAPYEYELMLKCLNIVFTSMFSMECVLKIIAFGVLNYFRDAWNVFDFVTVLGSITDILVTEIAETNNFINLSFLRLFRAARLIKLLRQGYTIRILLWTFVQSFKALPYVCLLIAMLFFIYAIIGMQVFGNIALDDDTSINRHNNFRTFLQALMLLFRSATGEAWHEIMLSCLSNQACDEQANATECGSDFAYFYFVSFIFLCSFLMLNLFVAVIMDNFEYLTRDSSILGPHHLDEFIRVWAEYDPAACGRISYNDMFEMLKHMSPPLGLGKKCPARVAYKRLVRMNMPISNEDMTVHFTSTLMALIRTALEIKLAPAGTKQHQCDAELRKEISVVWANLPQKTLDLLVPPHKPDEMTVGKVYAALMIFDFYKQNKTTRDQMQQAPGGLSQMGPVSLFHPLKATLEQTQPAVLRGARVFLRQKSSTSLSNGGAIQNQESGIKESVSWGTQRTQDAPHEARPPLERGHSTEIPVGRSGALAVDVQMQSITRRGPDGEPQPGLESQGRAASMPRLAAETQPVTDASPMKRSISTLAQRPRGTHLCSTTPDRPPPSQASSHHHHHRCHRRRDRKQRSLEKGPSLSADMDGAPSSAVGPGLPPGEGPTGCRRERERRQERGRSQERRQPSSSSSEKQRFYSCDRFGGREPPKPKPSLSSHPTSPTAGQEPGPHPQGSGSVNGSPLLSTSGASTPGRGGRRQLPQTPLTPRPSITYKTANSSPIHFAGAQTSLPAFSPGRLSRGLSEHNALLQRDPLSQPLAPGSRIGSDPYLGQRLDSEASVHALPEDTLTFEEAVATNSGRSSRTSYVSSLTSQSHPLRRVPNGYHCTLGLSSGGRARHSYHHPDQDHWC
T4 sequence (Q02410 whole entry): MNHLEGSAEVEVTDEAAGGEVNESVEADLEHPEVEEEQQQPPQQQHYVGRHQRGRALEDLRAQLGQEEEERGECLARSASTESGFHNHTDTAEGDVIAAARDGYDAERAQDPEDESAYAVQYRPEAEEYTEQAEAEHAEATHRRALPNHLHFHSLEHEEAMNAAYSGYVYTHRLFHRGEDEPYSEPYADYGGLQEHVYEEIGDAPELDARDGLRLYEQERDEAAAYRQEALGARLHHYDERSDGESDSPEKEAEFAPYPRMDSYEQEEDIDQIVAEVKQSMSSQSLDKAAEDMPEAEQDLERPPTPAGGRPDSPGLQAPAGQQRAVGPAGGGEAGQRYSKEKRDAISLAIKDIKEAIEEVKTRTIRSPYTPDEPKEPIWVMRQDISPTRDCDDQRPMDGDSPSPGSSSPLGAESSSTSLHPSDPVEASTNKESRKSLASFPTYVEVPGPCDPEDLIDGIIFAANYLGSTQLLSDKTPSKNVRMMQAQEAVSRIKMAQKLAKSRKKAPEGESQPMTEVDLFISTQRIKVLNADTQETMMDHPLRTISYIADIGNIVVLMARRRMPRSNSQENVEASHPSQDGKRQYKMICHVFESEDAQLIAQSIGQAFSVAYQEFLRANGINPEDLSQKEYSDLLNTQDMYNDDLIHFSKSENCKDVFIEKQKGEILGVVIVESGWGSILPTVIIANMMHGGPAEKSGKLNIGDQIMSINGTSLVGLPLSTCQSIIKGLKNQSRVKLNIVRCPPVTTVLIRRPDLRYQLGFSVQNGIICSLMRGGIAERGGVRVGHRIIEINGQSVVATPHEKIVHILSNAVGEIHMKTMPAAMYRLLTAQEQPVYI

[7] = biological target: T4, Voltage-gated N-type calcium channel alpha-1B subunit/Amyloid beta A4 precursor protein-binding family A member 1; format: protein assay; remark: listed apart in the source
[8] = biological target: T5, Replicative DNA helicase DnaB (Mycobacterium tuberculosis, UniProt P9WMR3); experiment: DnaB intein splicing inhibitors, dose response, biochemical, cell-free fluorescence (AID 449749); format: functional
T5 sequence (P9WMR3 whole entry): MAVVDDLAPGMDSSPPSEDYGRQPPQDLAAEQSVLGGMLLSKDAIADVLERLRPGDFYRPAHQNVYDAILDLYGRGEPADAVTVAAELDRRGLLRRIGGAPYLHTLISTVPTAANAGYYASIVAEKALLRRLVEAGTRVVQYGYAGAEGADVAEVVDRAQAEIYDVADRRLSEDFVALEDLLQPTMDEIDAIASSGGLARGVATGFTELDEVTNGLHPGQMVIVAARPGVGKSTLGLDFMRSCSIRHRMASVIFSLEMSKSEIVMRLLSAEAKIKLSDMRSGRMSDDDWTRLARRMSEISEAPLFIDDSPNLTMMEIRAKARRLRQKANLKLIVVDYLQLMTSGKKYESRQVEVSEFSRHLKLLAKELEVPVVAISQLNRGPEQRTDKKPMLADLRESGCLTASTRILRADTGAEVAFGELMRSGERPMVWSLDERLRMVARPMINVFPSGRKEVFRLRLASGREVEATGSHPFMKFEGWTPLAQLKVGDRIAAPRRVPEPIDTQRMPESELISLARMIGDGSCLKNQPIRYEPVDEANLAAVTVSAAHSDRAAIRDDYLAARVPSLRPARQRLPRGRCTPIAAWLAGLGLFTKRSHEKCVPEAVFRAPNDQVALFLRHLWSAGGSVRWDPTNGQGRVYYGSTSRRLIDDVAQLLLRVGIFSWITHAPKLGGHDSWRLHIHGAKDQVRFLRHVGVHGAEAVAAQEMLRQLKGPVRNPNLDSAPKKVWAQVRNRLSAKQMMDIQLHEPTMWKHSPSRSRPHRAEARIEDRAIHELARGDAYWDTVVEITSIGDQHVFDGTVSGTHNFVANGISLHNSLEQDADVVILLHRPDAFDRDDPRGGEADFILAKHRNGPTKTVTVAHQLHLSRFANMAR

Protein RecA = biological target: T6, Protein RecA (Mycobacterium tuberculosis, UniProt P9WHJ3); experiment: Fluorescence Cell-Free Homogeneous Dose Retest to Identify Inhibitors of RecA-Intein Splicing Activity. [Related pubchem assays (depositor defined):AID2097, AID2223, AID489010, AID492950]; format: functional
T6 sequence (P9WHJ3 whole entry): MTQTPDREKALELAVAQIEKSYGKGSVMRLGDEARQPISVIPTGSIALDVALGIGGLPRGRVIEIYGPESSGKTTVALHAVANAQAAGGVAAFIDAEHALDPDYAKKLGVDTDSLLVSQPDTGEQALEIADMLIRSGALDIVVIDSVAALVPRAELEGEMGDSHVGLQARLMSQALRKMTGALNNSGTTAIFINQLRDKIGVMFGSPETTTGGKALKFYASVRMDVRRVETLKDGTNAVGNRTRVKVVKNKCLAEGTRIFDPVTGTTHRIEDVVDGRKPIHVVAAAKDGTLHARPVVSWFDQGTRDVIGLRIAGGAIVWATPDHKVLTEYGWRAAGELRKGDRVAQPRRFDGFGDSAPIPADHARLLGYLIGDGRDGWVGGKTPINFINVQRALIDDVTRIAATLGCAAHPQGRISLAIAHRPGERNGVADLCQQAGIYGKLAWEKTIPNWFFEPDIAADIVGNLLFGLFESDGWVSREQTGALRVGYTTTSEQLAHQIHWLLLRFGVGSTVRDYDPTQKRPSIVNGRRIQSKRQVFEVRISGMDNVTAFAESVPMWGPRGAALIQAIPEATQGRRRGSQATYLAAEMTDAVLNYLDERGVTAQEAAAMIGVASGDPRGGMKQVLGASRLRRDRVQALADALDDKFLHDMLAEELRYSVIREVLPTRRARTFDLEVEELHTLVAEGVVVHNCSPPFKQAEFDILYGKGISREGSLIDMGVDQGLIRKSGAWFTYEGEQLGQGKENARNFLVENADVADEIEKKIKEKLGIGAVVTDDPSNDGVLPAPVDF

Paired box protein Pax-8 = Paired box protein Pax-8 (Homo sapiens, UniProt Q06710); experiment: inhibitors of PAX8-driven TPO luciferase reporter, dose response, RMG-I cells, cherry-pick (AID 687027); format: functional, cell-based;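 further: luciferase reporter driven by Pax8 target thyroperoxidase promoter measured by SteadyGlo luminescence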
[9] = inhibitors of CMV-promoter luciferase reporter, dose response, counter-screen for Pax8 inhibitor project, cell-based, HEK293, luminescence, dry powder (AID 743020); format: functional
[10] = non-specific cell cytotoxicity, dose response, cytotoxicity control for PAX8 inhibitor project, plate reader, dry powder samples (AID 743021); format: functional, cell-based
Hexokinase HKDC1 = biological target: T7, Hexokinase HKDC1 (Homo sapiens, UniProt Q2TB90); experiment: HKDC1 hexokinase activators, dose response, biochemical, W721R variant (AID 504730); format: functional
T7 sequence (Q2TB90 whole entry): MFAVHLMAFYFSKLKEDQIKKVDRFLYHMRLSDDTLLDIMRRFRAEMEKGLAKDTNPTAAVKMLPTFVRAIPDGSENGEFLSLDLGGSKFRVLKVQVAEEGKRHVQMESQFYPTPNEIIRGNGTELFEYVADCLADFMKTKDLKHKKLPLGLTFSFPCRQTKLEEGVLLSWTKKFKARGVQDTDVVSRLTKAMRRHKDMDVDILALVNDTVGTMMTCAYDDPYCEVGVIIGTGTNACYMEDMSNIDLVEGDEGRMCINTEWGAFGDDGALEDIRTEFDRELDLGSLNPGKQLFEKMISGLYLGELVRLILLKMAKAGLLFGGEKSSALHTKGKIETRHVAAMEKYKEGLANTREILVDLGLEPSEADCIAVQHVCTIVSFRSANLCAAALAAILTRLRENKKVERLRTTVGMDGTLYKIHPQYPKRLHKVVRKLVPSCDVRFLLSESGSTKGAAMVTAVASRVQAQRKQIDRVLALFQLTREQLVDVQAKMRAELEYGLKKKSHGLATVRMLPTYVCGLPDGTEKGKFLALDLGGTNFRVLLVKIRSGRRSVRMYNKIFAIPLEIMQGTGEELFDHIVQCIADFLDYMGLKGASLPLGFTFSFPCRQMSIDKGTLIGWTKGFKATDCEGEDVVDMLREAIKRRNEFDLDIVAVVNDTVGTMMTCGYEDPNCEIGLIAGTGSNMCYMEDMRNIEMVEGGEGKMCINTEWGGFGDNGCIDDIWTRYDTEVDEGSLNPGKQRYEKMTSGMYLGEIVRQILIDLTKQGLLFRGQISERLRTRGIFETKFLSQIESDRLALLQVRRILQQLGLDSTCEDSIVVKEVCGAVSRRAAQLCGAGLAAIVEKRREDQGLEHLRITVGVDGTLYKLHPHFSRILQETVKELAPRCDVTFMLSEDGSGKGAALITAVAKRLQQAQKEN

Hexokinase-1 = biological target: T8, Hexokinase-1 (Homo sapiens, UniProt P19367); experiment: hexokinase 1 activators, dose response, selectivity assay for HKDC1 activator project, biochemical (AID 504762); format: functional
T8 sequence (P19367 whole entry): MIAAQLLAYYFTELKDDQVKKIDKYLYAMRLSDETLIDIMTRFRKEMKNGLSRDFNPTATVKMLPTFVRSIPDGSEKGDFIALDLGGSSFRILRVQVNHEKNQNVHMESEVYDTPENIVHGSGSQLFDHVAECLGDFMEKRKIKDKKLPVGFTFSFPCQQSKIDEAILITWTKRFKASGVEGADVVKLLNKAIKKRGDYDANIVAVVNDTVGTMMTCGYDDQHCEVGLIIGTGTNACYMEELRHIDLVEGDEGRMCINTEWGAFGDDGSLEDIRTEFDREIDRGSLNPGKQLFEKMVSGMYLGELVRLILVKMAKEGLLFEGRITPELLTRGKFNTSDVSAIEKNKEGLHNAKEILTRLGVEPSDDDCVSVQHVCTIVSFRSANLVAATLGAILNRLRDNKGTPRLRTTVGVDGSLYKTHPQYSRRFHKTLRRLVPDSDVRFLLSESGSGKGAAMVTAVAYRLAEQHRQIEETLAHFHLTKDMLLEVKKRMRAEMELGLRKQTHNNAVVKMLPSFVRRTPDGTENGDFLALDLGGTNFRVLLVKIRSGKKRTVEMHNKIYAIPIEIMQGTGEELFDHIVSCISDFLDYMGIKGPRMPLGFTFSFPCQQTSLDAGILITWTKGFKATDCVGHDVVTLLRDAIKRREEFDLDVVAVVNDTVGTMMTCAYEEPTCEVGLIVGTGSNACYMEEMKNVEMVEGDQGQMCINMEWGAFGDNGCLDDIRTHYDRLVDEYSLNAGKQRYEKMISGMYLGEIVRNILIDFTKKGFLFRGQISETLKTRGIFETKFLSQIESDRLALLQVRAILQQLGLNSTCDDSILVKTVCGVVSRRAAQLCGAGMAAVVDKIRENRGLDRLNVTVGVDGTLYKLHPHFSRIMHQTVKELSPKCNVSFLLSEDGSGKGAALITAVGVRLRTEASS

## CN1CCS/C1=C\C=C1/SC(=S)N(CC(=O)O)C1=O
Leucine aminopeptidase
  IC50: 52.3 µM (active)
[1]
  EC50: 62.2 µM (not active)
[2]
  EC50: 89.8 µM (not active)
[3]
  EC50: > 79.4 µM (not active)
Ion channel NompC
  EC50: 5.26 µM (active)
Mucolipin-3
  EC50: 7.93 µM (active)
[4]
  IC50: 7.69 µM (not active)
[5]
  EC50: > 100 µM (active)

## N#Cc1nccnc1S(=O)(=O)c1cccs1
[6]
  IC50: 22.7 µM (active)
[7]
  IC50: 1.13 µM (active)
[8]
  AC50: 8.49 µM (active)
Protein RecA
  EC50: 6.36 µM (active)
Paired box protein Pax-8
  AC50: 4.59 µM (active)
[9]
  AC50: 23 µM (active)
[10]
  AC50: 13.5 µM (active)

## Cc1ccc(/N=C2\C(=S)N(c3ccc(C)cc3)C(=N)N2/N=C/c2ccc(Cl)cc2)cc1
Hexokinase HKDC1
  EC50: > 80 µM (inactive)
Hexokinase-1
  EC50: > 80 µM (inactive)
